From ChEMBL document CHEMBL5291721, “A preclinical secondary pharmacology resource illuminates target-adverse drug reaction associations of marketed drugs” (Nat Commun, 2023)

Legend:
Thromboxane A2 receptor = target: T1, Thromboxane A2 receptor (Homo sapiens, UniProt P21731); assay type: functional, cell-based
T1 sequence (P21731 whole entry): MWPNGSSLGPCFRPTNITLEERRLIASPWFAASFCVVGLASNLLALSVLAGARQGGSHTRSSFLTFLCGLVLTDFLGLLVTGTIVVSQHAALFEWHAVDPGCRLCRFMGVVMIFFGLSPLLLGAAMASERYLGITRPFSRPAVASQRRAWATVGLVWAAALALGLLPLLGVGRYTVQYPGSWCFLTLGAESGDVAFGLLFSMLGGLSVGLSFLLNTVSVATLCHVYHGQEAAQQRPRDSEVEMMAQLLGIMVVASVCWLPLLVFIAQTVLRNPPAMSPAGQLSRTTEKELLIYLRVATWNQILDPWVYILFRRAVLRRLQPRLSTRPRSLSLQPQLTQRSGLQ

Bile acid receptor [1] = target: T2, Bile acid receptor (Homo sapiens, UniProt Q96RI1); assay type: functional
T2 sequence (Q96RI1 whole entry): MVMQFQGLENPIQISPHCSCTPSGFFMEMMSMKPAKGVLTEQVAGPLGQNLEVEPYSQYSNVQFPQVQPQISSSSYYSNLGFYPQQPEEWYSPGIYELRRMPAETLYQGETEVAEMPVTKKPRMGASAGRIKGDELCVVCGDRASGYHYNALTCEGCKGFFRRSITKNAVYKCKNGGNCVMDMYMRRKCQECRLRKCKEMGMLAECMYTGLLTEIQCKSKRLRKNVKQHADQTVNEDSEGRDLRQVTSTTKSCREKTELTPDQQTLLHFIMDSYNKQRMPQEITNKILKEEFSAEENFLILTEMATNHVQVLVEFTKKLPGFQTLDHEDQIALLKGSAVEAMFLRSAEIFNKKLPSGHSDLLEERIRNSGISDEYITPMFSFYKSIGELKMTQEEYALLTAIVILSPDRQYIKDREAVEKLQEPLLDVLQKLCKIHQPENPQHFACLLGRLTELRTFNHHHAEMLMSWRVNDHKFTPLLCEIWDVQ

[2] = target: T3, Retinoic acid receptor gamma (Homo sapiens, UniProt P13631); assay type: functional, cell-based
T3 sequence (P13631 whole entry): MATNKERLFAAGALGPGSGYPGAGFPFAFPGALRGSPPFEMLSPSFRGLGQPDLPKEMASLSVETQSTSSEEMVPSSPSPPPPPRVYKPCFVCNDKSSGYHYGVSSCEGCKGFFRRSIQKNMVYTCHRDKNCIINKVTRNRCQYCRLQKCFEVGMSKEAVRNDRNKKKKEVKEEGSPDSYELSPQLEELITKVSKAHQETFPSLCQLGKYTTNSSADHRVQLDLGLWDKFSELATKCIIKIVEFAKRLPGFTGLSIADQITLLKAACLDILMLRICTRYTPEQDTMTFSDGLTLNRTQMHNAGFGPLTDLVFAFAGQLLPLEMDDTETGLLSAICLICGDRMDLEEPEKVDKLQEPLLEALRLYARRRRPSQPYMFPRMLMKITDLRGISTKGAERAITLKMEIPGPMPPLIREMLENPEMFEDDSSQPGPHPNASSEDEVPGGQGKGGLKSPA

[3] = target: T4, Retinoic acid receptor beta (Homo sapiens, UniProt P10826); assay type: functional, cell-based
T4 sequence (P10826 whole entry): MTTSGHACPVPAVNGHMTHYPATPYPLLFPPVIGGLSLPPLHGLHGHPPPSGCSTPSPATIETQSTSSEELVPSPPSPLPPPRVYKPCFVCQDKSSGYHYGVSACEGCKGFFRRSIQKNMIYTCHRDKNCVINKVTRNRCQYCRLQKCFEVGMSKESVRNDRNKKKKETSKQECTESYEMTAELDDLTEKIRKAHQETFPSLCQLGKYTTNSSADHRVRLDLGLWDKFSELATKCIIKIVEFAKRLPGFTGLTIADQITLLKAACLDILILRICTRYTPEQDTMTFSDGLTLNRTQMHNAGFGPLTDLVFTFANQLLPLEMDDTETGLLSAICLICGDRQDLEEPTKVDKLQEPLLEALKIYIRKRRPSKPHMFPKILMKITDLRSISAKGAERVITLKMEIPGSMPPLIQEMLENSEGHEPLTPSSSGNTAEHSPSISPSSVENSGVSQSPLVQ

[4] = target: T5, Oxysterols receptor LXR-beta (Homo sapiens, UniProt P55055); assay type: functional
T5 sequence (P55055 whole entry): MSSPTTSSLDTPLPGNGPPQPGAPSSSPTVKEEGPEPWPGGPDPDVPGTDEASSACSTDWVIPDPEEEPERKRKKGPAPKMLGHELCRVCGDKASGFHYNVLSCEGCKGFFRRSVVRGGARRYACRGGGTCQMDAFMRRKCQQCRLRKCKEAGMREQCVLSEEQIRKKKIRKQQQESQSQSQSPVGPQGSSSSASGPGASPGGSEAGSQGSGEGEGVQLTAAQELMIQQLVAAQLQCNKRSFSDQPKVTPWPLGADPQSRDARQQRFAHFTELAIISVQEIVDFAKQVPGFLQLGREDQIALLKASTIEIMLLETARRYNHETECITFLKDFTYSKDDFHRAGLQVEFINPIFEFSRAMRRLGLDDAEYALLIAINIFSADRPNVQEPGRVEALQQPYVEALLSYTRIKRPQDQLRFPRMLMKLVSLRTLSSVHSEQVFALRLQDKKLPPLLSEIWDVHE

[5] = target: T4, Retinoic acid receptor beta; assay type: functional, cell-based; remark: listed apart in the source
Bile acid receptor [6] = target: T2, Bile acid receptor; assay type: functional; remark: listed apart in the source
Note: assay procedure not described here.

SMILES | AC50 (Thromboxane A2 receptor) [µM] | AC50 (Bile acid receptor [1]) [µM] | AC50 [2] [µM] | AC50 [3] [µM] | AC50 [4] [µM] | AC50 [5] [µM] | AC50 (Bile acid receptor [6]) [µM]
N=C(N)NC(=O)Cc1c(Cl)cccc1Cl [GUANFACINE] | > 30 |  |  |  |  |  | 
CC(=O)N1CCN(c2ccc(OCC3COC(Cn4ccnc4)(c4ccc(Cl)cc4Cl)O3)cc2)CC1 (configuration not stated) [KETOCONAZOLE] |  | 15 | > 30 | > 30 | 4.7 | 3.3 | > 10
